Test results: US8871232B2, “Self-indicating wipe for removing bacteria from a surface” (Kimberly-Clark Worldwide, Inc., priority 2007, dated 2014)

How the values were obtained:
[1] = tested on: S. aureus; assay: Wipe test: removal of S. aureus from ceramic tile and transfer to clean tile, visualised with indicator spray; details: WTCL wipe treated with aluminum chlorohydrate (1% W/W, add-on approx. 6 to 7%) and 1% Reichardt's dye dots; 100 microliter drops of 10^7 CFU/ml S. aureus on ceramic tile; control wipe's "X" readily visible
Description: A wire-textured coform laminate (WTCL) was treated with aluminum chlorohydrate (1% W/W) using a dip and nip procedure, with a resulting add-on of approximately 6 to 7%. The treated WTCL was then treated with a 1% solution of Reichardt's dye indicator (prepared in acetonitrile) in a small dot pattern using a syringe. Control WTCL wipe material without aluminum chlorohydrate was also used for this experiment as a control. Two 100 microliter drops of 10^7 CFU/ml S. aureus were placed onto a ceramic tile. Treated wipe and control material were both used to wipe the drop off of the tile. These wipes were then used to make an “X” onto clean tiles. These tiles were then sprayed with bacterial indicator solution (80 mg/10 mL acetonitrile) using a Chromist® spray can. The treated WTCL was then also sprayed with the indicator. Finally, the treated wipe (now clearly visible) containing the bacteria was once again used to wipe a clean area of tile. This area was then sprayed with the indicator. The “X” for the control was readily visible.

[2] = tested on: live culture yogurt; assay: Colour change of Reichardt's dye lines on paper towel after wiping a contaminated cutting board; details: VIVA paper towels sprayed with saturated Reichardt's dye in isopropanol with potassium hydroxide; cutting board with light smears of live culture yogurt
Source text: Sheets of VIVA® paper towels (Kimberly-Clark Corporation, Neenah Wis.) were placed on a flat surface, three sheets wide. A stainless steel grilling grate (Weber Company, purchased from Home Depot store) was placed onto top of the sheets. Next a 100-milliliter saturated solution of Reichardt's dye in isopropanol with 10 milliliters of potassium hydroxide was placed into a container and then sprayed (Chromist sprayer) over the grilling grate with the VIVA® towels underneath. The grilling grate was removed and the towels were hung in a fumehood and allowed to dry. The paper towels now had multiple parallel lines of the Reichardt's dye across the paper towel. The lines were 4 centimeters apart. Onto a cutting board surface (plastic cutting boards, Kroger grocery store) was applied light smears (3 cm×15 cm) of live culture yogurt. Next, the treated VIVA® paper towels were used to wipe the surface of the cutting board.

| Molecule | transfer of bacteria from used wipe to clean tile [1] | color of the Reichardt's dye lines on contact with contaminated surface [2] |
| --- | --- | --- |
| aluminum chlorohydrate | did not transfer bacteria to the clean tile | – |
| [O-]c1c(-c2ccccc2)cc(-[n+]2c(-c3ccccc3)cc(-c3ccccc3)cc2-c2ccccc2)cc1-c1ccccc1 [Reichardt's dye, 4-(2,4,6-triphenylpyridinium-1-yl)-2,6-diphenylphenolate] | – | rapidly discharged |
